# Assay results as given in US20150246056A1, “METHODS FOR TREATING OR PREVENTING SYMPTOMS OF HORMONAL VARIATIONS” (priority 2006, published 2015).
# Where two headings read alike, the source gives them in different places.
# How the values were obtained:
# [1] = test system: hot flashes; settings: cited from earlier work; for minimizing the occurrence and severity of hot flashes compared with placebo: randomized clinical trials (Loprinzi 2000; Stearns 2003)
# [2] = test system: hot flashes or other symptoms of hormonal variations
# [3] = test system: α1-adrenergic receptors; settings: cited from earlier work
# [4] = test system: α2-adrenergic receptors; settings: cited from earlier work
# [5] = target: D1 dopamine receptors (Homo sapiens, UniProt P21728); settings: cited from earlier work
# [6] = target: dopamine type 2 (D2) receptor (Homo sapiens, UniProt P14416); settings: cited from earlier work
# [7] = target: D2 dopamine receptor (Homo sapiens, UniProt P14416); settings: serial PET scans; cited from earlier work
# [8] = Patient 2, risperidone 2 mg per day
# [9] = Patient 3, risperidone 1 mg daily resumed
# Sequence of D2 dopamine receptor (P14416 whole entry): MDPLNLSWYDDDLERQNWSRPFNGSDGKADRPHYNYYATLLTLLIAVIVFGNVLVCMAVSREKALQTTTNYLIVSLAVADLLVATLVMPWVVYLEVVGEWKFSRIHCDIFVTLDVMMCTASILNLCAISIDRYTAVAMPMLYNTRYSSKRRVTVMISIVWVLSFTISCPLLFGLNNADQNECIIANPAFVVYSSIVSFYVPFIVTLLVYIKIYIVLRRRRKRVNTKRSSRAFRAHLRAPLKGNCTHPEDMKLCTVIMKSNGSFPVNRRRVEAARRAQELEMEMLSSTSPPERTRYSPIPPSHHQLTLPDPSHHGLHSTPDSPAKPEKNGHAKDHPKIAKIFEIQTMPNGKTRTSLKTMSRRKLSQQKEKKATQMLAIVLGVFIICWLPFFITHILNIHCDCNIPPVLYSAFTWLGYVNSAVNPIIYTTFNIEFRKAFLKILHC
# Sequence of dopamine type 2 (D2) receptor (P14416 whole entry): as above
# Sequence of D1 dopamine receptors (P21728 whole entry): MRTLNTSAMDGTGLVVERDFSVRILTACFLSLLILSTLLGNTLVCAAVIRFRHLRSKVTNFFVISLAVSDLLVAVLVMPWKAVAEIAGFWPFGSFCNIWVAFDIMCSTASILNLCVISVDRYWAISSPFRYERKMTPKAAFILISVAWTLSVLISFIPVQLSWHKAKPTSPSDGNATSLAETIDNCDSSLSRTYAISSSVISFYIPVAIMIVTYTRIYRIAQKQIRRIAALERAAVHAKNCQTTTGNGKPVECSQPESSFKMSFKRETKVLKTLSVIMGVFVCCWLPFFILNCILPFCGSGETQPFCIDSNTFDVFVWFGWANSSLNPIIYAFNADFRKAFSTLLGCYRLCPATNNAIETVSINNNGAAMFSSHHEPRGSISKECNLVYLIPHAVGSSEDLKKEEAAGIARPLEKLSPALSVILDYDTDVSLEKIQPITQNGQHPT
compound,measurement,setting,value
Clc1cccc(Cl)c1N=C1NCCN1 [clonidine],adverse effects,"[1]; randomized clinical trials, including dry mouth, dizziness, and blurred vision",common
same,efficacy against hot flashes compared with placebo,"[1]; randomized clinical trials, tamoxifen-induced hot flashes (Goldberg 1994; Pandya 2000)",moderately more efficacious than placebo
COC(=O)C1=C(C)NC(C)=C(C(=O)OC)C1c1ccccc1[N+](=O)[O-] [adalate],blood pressure after sublingual dose for sudden onsets of high blood pressure,"[2]; human, in vivo",frequently dropped below critical level
Fc1ccc([C@@H]2CCNC[C@H]2COc2ccc3c(c2)OCO3)cc1 [paroxetine],minimizing the occurrence and severity of hot flashes compared with placebo,[1],more effective than placebo
COc1ccc(C(CN(C)C)C2(O)CCCCC2)cc1 (stereo not drawn) [venlafaxine],minimizing the occurrence and severity of hot flashes compared with placebo,[1],more effective than placebo
Cc1nc2n(c(=O)c1CCN1CCC(c3noc4cc(F)ccc34)CC1)CCCC2 [risperidone],affinity for α1-adrenergic receptors,[3],high affinity
same,affinity for α2-adrenergic receptors,[4],lower affinities
same,binding to D1 dopamine receptors,[5],does not bind
same,affinity for D2 receptor,[6],high affinity
same,"associated symptoms, such as palpitation and anxiety","[2]; Patient 1, risperidone 2 mg/day",improved significantly
same,time to reoccurrence of hot flashes after discontinuing the treatment,"[2]; Patient 1, risperidone 2 mg/day discontinued",2 to 3 days
same,frequency of hot flashes,"[2]; Patient 1, risperidone 2 mg/day, after three days of treatment",once per 1-2 weeks
same,time to alleviation of symptoms after resuming treatment,"[2]; Patient 1, risperidone resumed",3 to 4 days
same,hot flashes after treatment was resumed,"[2]; Patient 2, risperidone 2 mg daily resumed",has not suffered another hot flash since
same,blood pressure,[2]; [8],stabilized
same,sleep,[2]; [8],slept well
same,occurrence of hot flashes,"[2]; Patient 2, risperidone 2 mg per day, by day 7",completely eliminated
same,occurrence of hot flashes,"[2]; Patient 2, risperidone 2 mg per day, two days after starting",reduced markedly
same,time to return of hot flashes and night sweats after treatment was completely discontinued,"[2]; Patient 2, risperidone tapered off over 2 days",two
same,hot flashes after treatment was resumed,[2]; [9],no longer experienced hot flashes
same,quality of sleep and life,[2]; [9],improved
same,frequency and intensity of hot flashes,"[2]; Patient 3, risperidone 1 mg per night, three days after starting, seven hot flashes per day before",markedly reduced
same,hot flashes after dose reduction,"[2]; Patient 3, three months later, risperidone 0.25 mg or less per day",still markedly eliminated
same,residual hot flashes,"[2]; Patient 4, risperidone 1 mg at bedtime for two days, then 2 mg per night, with hormone replacement therapy, three days after starting",completely eliminated
same,blood pressure,"[2]; Patient 4, risperidone 2 mg per night",stabilized within the normal range
OCCOCCN1CCN(C2=Nc3ccccc3Sc3ccccc32)CC1 [quetiapine],dissociation from the D2 receptor,[7],rapidly disassociates
estrogen,response of perimenopausal symptoms to earlier therapies,"[2]; Patient 3, perimenopausal person",responded well
